Measurements reported in patent publication US7816332B2, “Stable aqueous solution of natamycin fungicide” (DSM IP Assets B.V., priority 2003, dated 2010).
Read-outs that look alike come from different tables or passages of the source.

Assays:
most foodborne fungi = conditions: cited from earlier work
[1] = Stability of non-buffered natamycin solutions on storage (Example 2); assay type: physicochemical
Description: This Example describes the rapid preparation of a stable aqueous composition of natamycin in a non-buffered aqueous system with enhanced solubility. • A concentrated natamycin solution was prepared as described in Example 1 (1). • However, after diluting the concentrated natamycin solution in water, the pH was adjusted to 6.4-6.6 using HCL. Finally, solutions containing 101 and 202 ppm of natamycin were obtained. • The amount of natamycin in the compositions was determined after 24 hours storage at 21° C. The concentration of natamycin was 99 and 192 ppm respectively. Hardly any loss of activity was observed after 9 days storage at 6° C. The concentration of natamycin was 98 and 198 ppm respectively. Even after storage for 9 days at 21° C. the concentration of natamycin in the composition containing 101 ppm at t=0 was 82 ppm. […] The amount of dissolved natamycin of these solutions is at least 6 times higher than the maximum solubility in water at the same pH values

[2] = Dissolution of natamycin when preparing solutions, with controls (Example 1); assay type: physicochemical
Description: (§1) • An ethanolic aqueous solution having a pH of 12.8 was prepared by mixing 60 ml of a 0.04 N sodium hydroxide solution and 40 ml of 96% ethanol. • While stirring vigorously, 1 g of natamycin was added. The natamycin dissolved within 2 minutes. • Immediately after dissolution, the obtained concentrated natamycin solution was added to 20 l of a 0.01 M citrate buffer solution. A solution containing 57 ppm of natamycin and 0.2% of ethanol with a pH of 6.5 was obtained. • In a similar manner, a solution containing 101 ppm of natamycin and 0.4% of ethanol and a solution containing 202 ppm of natamycin and 0.8% of ethanol was obtained by adding the concentrated natamycin solution to […] of a 0.01 M citrate buffer respectively. Preparation of the Natamycin Solutions (2)
Controls • 1 g of natamycin was added to a neutral ethanolic aqueous system containing up to 40% of ethanol.

most yeasts = conditions: cited from earlier work
[3] = cited from earlier work
[4] = Stability of buffered natamycin solutions on storage, HPLC (Example 1); assay type: physicochemical; conditions: for amount of natamycin after storage (HPLC): 24 hours at 21° C.
Description: as §1
Stability of the Solutions • The amount of natamycin in the compositions (1) was determined after 24 hours storage at 21° C. The amount of natamycin was determined using well-known methods (HPLC) and shown to be 57, 97 and 196 ppm respectively. Hardly any loss of activity was observed after 9 days storage at 6° C. The concentration of natamycin was 49, 100 and 170 ppm respectively. Even after storage for 9 days at 21° C., the concentration of natamycin of the composition containing 101 ppm at t=0 was 99 ppm.

Which results are given for `C[C@@H]1C/C=C/C=C/C=C/C=C/[C@H](O[C@@H]2O[C@H](C)[C@@H](O)[C@H](N)[C@@H]2O)C[C@@H]2O[C@](O)(C[C@@H](O)C[C@H]3O[C@@H]3/C=C/C(=O)O1)C[C@H](O)[C@H]2C(=O)O` [natamycin]?
minimal inhibitory concentration (most foodborne fungi): less than 10 ppm; amount of dissolved natamycin relative to maximum solubility in water at the same pH ([1]; Example 2 non-buffered solutions): at least 6 times; concentration of natamycin after storage ([1]; non-buffered solution with 101 ppm at t=0, pH 6.4-6.6 (HCl), 24 hours at 21° C.): 99 ppm; concentration of natamycin after storage ([1]; non-buffered solution with 101 ppm at t=0, 9 days at 6° C.): 98 ppm; concentration of natamycin after storage ([1]; non-buffered solution with 101 ppm at t=0, 9 days at 21° C.): 82 ppm; concentration of natamycin after storage ([1]; non-buffered solution with 202 ppm at t=0, pH 6.4-6.6 (HCl), 24 hours at 21° C.): 192 ppm; concentration of natamycin after storage ([1]; non-buffered solution with 202 ppm at t=0, 9 days at 6° C.): 198 ppm; time to dissolve ([2]; 1 g natamycin in 100 ml ethanolic aqueous solution of pH 12.8 (0.04 N NaOH / 96% ethanol 60:40), vigorous stirring): ≤ 2 min; dissolution (control) ([2]; 1 g natamycin in neutral ethanolic aqueous system containing up to 40% ethanol, a few hours of stirring): not fully dissolved; dissolution (control) ([2]; 200 ppm natamycin in buffered aqueous system, solvent not present): did not dissolve; dissolution (control) ([2]; 200 ppm natamycin, solvent present, without first raising the pH to 12.8): did not dissolve; dissolution (control) ([2]; same procedure as Example 1 without adding a solvent): did not dissolve; minimal inhibitory concentration (most yeasts): less than 5 ppm; maximum solubility ([3]; acetone/water (4:1) system): 110 ppm; solubility ([3]; ethanol/water (4:1) system): 220 ppm; solubility ([3]; pure ethanol): 40 ppm; solubility in water ([3]; water at neutral pH levels): 30 ppm; amount of dissolved natamycin relative to maximum solubility in water at the same pH ([4]; Example 1 buffered solutions): at least 6 times; amount of natamycin after storage (HPLC) ([4]; solution with 57 ppm at t=0, 0.2% ethanol, citrate buffer pH 6.5): 57 ppm; concentration of natamycin after storage ([4]; solution with 57 ppm at t=0, 0.2% ethanol, citrate buffer, 9 days at 6° C.): 49 ppm; amount of natamycin after storage (HPLC) ([4]; solution with 101 ppm at t=0, 0.4% ethanol, citrate buffer): 97 ppm; concentration of natamycin after storage ([4]; solution with 101 ppm at t=0, 0.4% ethanol, citrate buffer, 9 days at 6° C.): 100 ppm; concentration of natamycin after storage ([4]; solution with 101 ppm at t=0, citrate buffer, 9 days at 21° C.): 99 ppm; amount of natamycin after storage (HPLC) ([4]; solution with 202 ppm at t=0, 0.8% ethanol, citrate buffer): 196 ppm; concentration of natamycin after storage ([4]; solution with 202 ppm at t=0, 0.8% ethanol, citrate buffer, 9 days at 6° C.): 170 ppm
